Patent publication US20250049798A1, “WEE1 PROTEIN KINASE DEGRADATION AGENT AND USE THEREOF” (HANGZHOU GLUBIO PHARMACEUTICAL CO. LTD., priority 2021, published 2025)
In brackets after ≈: the same amount, converted by molar mass. Where two headings read alike, the source gives them in different places.

Assays:
HiBiT tagged Wee1 = HiBiT tagged Wee1 (Homo sapiens, UniProt P30291); assay: Wee1 protein degradation assay (HiBiT assay); type: cell-based; details: engineered HT-1080 cells, 20 hours; for Dmax: maximum percentage of Wee1 degradation, read-out: HiBiT Wee1: Dmax
NCI-H1048 cells = assay: NCI-H1048 cell proliferation assay (CTG assay); type: cell-based; details: Homo sapiens, 120 hours, read-out: CTG cellular assay_H1048: IC50
How it was run: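 NCI-H1048 small cell lung cancer cells (RPMI-1640, 10% FBS) were exposed to 10-point half-log compound dilutions from 10 μM to 0.316 nM for 120 h at 37° C., 5% CO2. Viability was read by CellTiter-Glo luminescence and normalized to DMSO as percent of control. EC50 and DC50 were fitted with a four-parameter logistic model.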

[1] = Determination of kinetic solubility; type: physicochemical; details: PBS, aqueous buffer, kinetic from dmso stock, shaking at 25° C. for 2 hours
Protocol: An aliquot of 30 μL stock solution (10 mM) was placed in order into their proper 96-well rack. 970 μL of PBS was added into each vial of the cap-less solubility sample plate. The assay was performed in duplicate. In each vial, a stir stick was added and sealed with a molded PTFE/Silicone plug. […] Plugs were removed after 2 hours and the stir sticks were removed using a big magnet. Then the samples were transferred from the solubility sample plate into the filter plate. All the samples were filtered using the vacuum manifold. An aliquot of 5 μL filtrate was mixed with 5 μL DMSO and 490 μL of a mixture of H2O and acetonitrile (v:v, 1:1) containing internal standard. A certain proportion of ultrapure water was used to dilute according to the peak shape. The dilution factor was changed according to the solubility values and the LC-MS/MS signals.
An aliquot of 6 μL stock solution (10 mM in DMSO) was transferred from standard (STD) stock plate into a new plate, and then 194 μL of DMSO was added to get a STD working solution of 300 μM. Then 5 μL of 300 μM working solution was mixed with 5 μL of DMSO and 490 μL of a mixture of H2O and acetonitrile (v:v, 1:1) containing internal standard and the final STD concentration was 3 μM. The STD concentration were changed according to the LC-MS/MS signals.
The sample plate was put into the autosampler and the test compound concentration was determined by LC-MS/MS.

[2] = Permeability study in MDCKII cells (bidirectional A to B and B to A); type: in vitro ADME, Canine; details: dog, MDCK; for efflux ratio at 120 min, 1 μM: pH 7.4; for Papp A→B at 120 min, 1 μM / Papp B→A at 120 min, 1 μM: pH 7.4, 120 minutes; for Papp A→B at 120 min, 1 μM: apical to basolateral; for Papp B→A at 120 min, 1 μM: basolateral to apical
Protocol: MDCKII (Madin-Darby Canine Kidney cell line, wild type) cell was obtained from the Netherlands Cancer Institute, which was used for P-gp substrates or inhibitors screening and predicting the permeability of compounds with high efflux barriers such as duodenum, blood-brain barrier, hepatocyte nucleus and renal unit. The MDCKII cells with 10 to 22 passages were used for the permeability investigation.
MDCKII cells were cultured using Minimum Essential Media (MEM) at 37° C., 5% CO2 and 95% relative humidity. The cells were seeded in Transwell plate with 5.45×10^5 cells/cm^2. Then the cells were incubated in CO2 Incubator for 4-7 days for transport studies.
The complete medium was prepared by adding 10% FBS (fetal bovine serum) and 1% glutamax-1 to 500 ml MEM.
The dose concentrations of test compounds and control compounds were 1 μM. The bidirectional (A to B and B to A) permeability was evaluated. All incubations are performed in duplicate.
The regents were pre-incubated at 37±1° C. for 30 minutes. To determine the transport rate from apical to basolateral direction, 125 μL working solution (1 μM) was added to the Transwell insert (apical compartment), and 50 μL sample was immediately transferred from the apical compartment to a new 96-well plate as the initial donor sample (A-B) and mixed with 200 μL of acetonitrile or methanol containing IS. And 235 μL HBSS (10 mM HEPES, pH 7.4) was added to the receiver plate (basolateral compartment). To determine the transport rate from basolateral to apical direction, 285 μL working solution (1 μM) was added to the receiver plate (basolateral compartment), and 50 μL sample was immediately transferred from the basolateral compartment to a new 96-well plate as the initial donor sample (B-A) and mixed with 200 μL of acetonitrile or methanol containing IS. And 75 μL HBSS (10 mM HEPES, pH 7.4) was added to the Transwell insert (apical compartment). Then the plate was incubated at […] with 5% CO2 and 95% relative humidity for 120 minutes.
At the end of incubation, 50 μL samples from donor and receiver sides were transferred into a new 96-well plate. 200 μL of ice-cold acetonitrile or methanol containing appropriate internal standards (IS) was mixed with the samples. After vortex for 10 minutes, the samples are centrifuged at 3220 g for 40 minutes. An aliquot of 100 μL of the supernatant was mixed with appropriate volume of ultra-pure water and was analyzed by LC-MS/MS. All incubations are performed in duplicate.
The integrity of MDCKII cells were checked by Lucifer Yellow Rejection Assay after transport assay. The plate(s) were incubated with Lucifer Yellow solution at 37° C. for 30 minutes. The Lucifer Yellow fluorescence (to monitor monolayer integrity) was measured in a fluorescence plate reader at 480 nm excitation and 530 nm emission.
Test and reference compounds (metoprolol and digoxin) were semi-quantitatively analyzed, and the peak area ratio of the analyte and the internal standard was used to evaluate the concentration of the compounds.

[3] = Pharmacokinetic study in mice (IV and PO); type: in vivo; details: male CD1 mice; for F: PO (10 mg/kg) vs IV (2 mg/kg); for AUC(0-inf) / clearance / half-life / Cmax: mouse, plasma; for half-life: read-out: T½ (converted)
Protocol: Objective: the objective of this study was to determine the pharmacokinetics of test compound following intravenous (IV) and oral (PO) administration to male CD1 mice.
Materials: Male CD1 mouse (20-30 g, 6-8 weeks, Zhejiang Vital River Laboratory Animal Technology Co., Ltd.).
The CD1 mice were administered with the test article intravenously via tail vein at 2 mg/kg or orally at 10 mg/kg. The animals had free access to food and water. After dose administration, blood was collected from the dorsal metatarsal vein at 5 min (0.0833 h, IV only), 15 min (0.25 h), 30 min (0.5 h), 60 min (1 h), 2 h, 4 h, 6 h, 8 h and 24 h. Blood samples were placed in an anticoagulant tube with EDTA-K2, mixed adequately and centrifuged at 4° C., 4000 g for 5 minutes to get the plasma. The plasma samples were stored at −75±15° C. until analyzed by LC-MS/MS. The PK parameters were calculated using non-compartmental model by Phoenix WinNonlin 6.1 (Linear/log trapezoidal).

[4] = pH 3.0, read-out: Kinetic solubility (μM) pH 3.0
[5] = pH 5.0, read-out: Kinetic solubility (μM) pH 5.0

Sequence of HiBiT tagged Wee1 (P30291 whole entry): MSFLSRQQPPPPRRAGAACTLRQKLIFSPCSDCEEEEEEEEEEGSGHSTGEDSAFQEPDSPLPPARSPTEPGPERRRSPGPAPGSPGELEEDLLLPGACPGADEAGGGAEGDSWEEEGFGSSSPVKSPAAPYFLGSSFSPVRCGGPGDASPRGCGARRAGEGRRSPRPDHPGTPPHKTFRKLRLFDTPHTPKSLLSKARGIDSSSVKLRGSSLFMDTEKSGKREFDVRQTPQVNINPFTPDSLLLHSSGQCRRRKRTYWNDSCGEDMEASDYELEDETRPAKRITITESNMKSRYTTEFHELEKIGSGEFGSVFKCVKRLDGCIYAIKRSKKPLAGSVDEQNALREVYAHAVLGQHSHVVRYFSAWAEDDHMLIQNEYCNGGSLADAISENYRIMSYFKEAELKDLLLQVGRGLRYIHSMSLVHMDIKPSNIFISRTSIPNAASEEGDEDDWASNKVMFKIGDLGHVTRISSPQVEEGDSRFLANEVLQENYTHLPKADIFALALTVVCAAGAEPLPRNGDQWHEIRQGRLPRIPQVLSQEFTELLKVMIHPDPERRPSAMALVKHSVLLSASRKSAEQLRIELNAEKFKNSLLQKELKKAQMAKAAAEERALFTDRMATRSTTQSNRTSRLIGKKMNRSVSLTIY

C=CCn1c(=O)c2cnc(Nc3ccc(N4CCN(CC5CCN(c6ccc(NC7CCC(=O)NC7=O)cc6F)CC5)CC4)cc3)nc2n1-c1ccc2c(n1)[C@@](O)(CC)CC2 (mixture of isomers) [Compound 110]
DC50 (HiBiT tagged Wee1): < 100 nM
Dmax (HiBiT tagged Wee1): > 75%
IC50 (NCI-H1048 cells): ≤ 25 nM
solubility kinetic at 2 h [1, 4]: 233 µM
solubility kinetic at 2 h [1, 5]: 132 µM
efflux ratio at 120 min, 1 μM [2]: 0.89
Papp A→B at 120 min, 1 μM [2]: 2.37 ×10⁻⁶ cm/s
Papp B→A at 120 min, 1 μM [2]: 2.11 ×10⁻⁶ cm/s
F [3]: 106%
AUC(0-inf) ([3]; IV (2 mg/kg)): 10900 ng·h/mL
clearance ([3]; IV (2 mg/kg)): 3.24 mL/min/kg
half-life ([3]; IV (2 mg/kg)): 3.03 h
AUC(0-inf) ([3]; PO (10 mg/kg)): 53200 ng·h/mL
Cmax ([3]; PO (10 mg/kg)): 4210 ng/mL
half-life ([3]; PO (10 mg/kg)): 2.95 h

C=CCn1c(=O)c2cnc(Nc3ccc(N4CCC(CN5CCC(c6cccc7c6n(C)c(=O)n7C6CCC(=O)NC6=O)CC5)CC4)cc3)nc2n1-c1cccc(C(C)(C)O)n1 (stereo not shown) [Compound 55]
DC50 (HiBiT tagged Wee1): < 100 nM
Dmax (HiBiT tagged Wee1): 50 to 75%
IC50 (NCI-H1048 cells): ≤ 25 nM
solubility kinetic at 2 h [1, 4]: 194 µM (≈ 163 µg/mL)
solubility kinetic at 2 h [1, 5]: 55.7 µM (≈ 46.8 µg/mL)
efflux ratio at 120 min, 1 μM [2]: 2.88
Papp A→B at 120 min, 1 μM [2]: 2.48 ×10⁻⁶ cm/s
Papp B→A at 120 min, 1 μM [2]: 7.09 ×10⁻⁶ cm/s
F [3]: 38.9%
AUC(0-inf) ([3]; IV (2 mg/kg)): 6980 ng·h/mL
clearance ([3]; IV (2 mg/kg)): 4.78 mL/min/kg
half-life ([3]; IV (2 mg/kg)): 5.7 h
AUC(0-inf) ([3]; PO (10 mg/kg)): 13600 ng·h/mL
Cmax ([3]; PO (10 mg/kg)): 902 ng/mL
half-life ([3]; PO (10 mg/kg)): 5.2 h

C=CCn1c(=O)c2cnc(Nc3ccc(N4CCC(CN(C)C5CCN(c6cccc7c6n(C)c(=O)n7C6CCC(=O)NC6=O)CC5)CC4)cc3)nc2n1-c1cccc(C(C)(C)O)n1 (stereo not shown) [Compound 61]
DC50 (HiBiT tagged Wee1): < 100 nM
Dmax (HiBiT tagged Wee1): 50 to 75%
IC50 (NCI-H1048 cells): ≤ 25 nM
solubility kinetic at 2 h [1, 4]: 299 µM (≈ 260 µg/mL)
solubility kinetic at 2 h [1, 5]: 203 µM (≈ 176 µg/mL)

C=CCn1c(=O)c2cnc(Nc3ccc(N4CCN(CC5CCN(c6cccc7c6n(C)c(=O)n7C6CCC(=O)NC6=O)CC5)CC4)cc3)nc2n1-c1cccc(C(C)(C)O)n1 (stereo not shown) [Compound 65]
DC50 (HiBiT tagged Wee1): < 100 nM
Dmax (HiBiT tagged Wee1): 50 to 75%
IC50 (NCI-H1048 cells): ≤ 25 nM
efflux ratio at 120 min, 1 μM [2]: 0.94
Papp A→B at 120 min, 1 μM [2]: 1.35 ×10⁻⁶ cm/s
Papp B→A at 120 min, 1 μM [2]: 1.27 ×10⁻⁶ cm/s

C=CCn1c(=O)c2cnc(Nc3ccc(C4CCN(CC5CCN(c6cccc7c6n(C)c(=O)n7C6CCC(=O)NC6=O)CC5)CC4)cc3)nc2n1-c1cccc(C(C)(C)O)n1 (stereo not shown) [Compound 66]
DC50 (HiBiT tagged Wee1): < 100 nM
Dmax (HiBiT tagged Wee1): 50 to 75%
IC50 (NCI-H1048 cells): ≤ 25 nM
solubility kinetic at 2 h [1, 4]: 252 µM (≈ 212 µg/mL)
solubility kinetic at 2 h [1, 5]: 148 µM (≈ 124 µg/mL)
F [3]: 23.6%
AUC(0-inf) ([3]; IV (2 mg/kg)): 26700 ng·h/mL
clearance ([3]; IV (2 mg/kg)): 1.25 mL/min/kg
half-life ([3]; IV (2 mg/kg)): 7 h
AUC(0-inf) ([3]; PO (10 mg/kg)): 31600 ng·h/mL
Cmax ([3]; PO (10 mg/kg)): 1880 ng/mL
half-life ([3]; PO (10 mg/kg)): 7.2 h

C=CCn1c(=O)c2cnc(Nc3ccc(N4CCC(CN5CCN(c6ccc(NC7CCC(=O)NC7=O)cc6F)CC5)CC4)cc3)nc2n1-c1cccc(C(C)(C)O)n1 (stereo not shown) [Compound 71]
DC50 (HiBiT tagged Wee1): < 100 nM
Dmax (HiBiT tagged Wee1): > 75%
IC50 (NCI-H1048 cells): ≤ 25 nM
F [3]: 75.4%
AUC(0-inf) ([3]; IV (2 mg/kg)): 6730 ng·h/mL
clearance ([3]; IV (2 mg/kg)): 4.95 mL/min/kg
half-life ([3]; IV (2 mg/kg)): 2.79 h
AUC(0-inf) ([3]; PO (10 mg/kg)): 25400 ng·h/mL
Cmax ([3]; PO (10 mg/kg)): 2730 ng/mL
half-life ([3]; PO (10 mg/kg)): 3 h

C=CCn1c(=O)c2cnc(Nc3ccc(N4CCC(CN5CCC(c6ccc(NC7CCC(=O)NC7=O)cc6)CC5)CC4)cc3)nc2n1-c1cccc(C(C)(C)O)n1 (stereo not shown) [Compound 72]
DC50 (HiBiT tagged Wee1): < 100 nM
Dmax (HiBiT tagged Wee1): > 75%
IC50 (NCI-H1048 cells): ≤ 25 nM
F [3]: 80.2%
AUC(0-inf) ([3]; IV (2 mg/kg)): 1130 ng·h/mL
clearance ([3]; IV (2 mg/kg)): 29.5 mL/min/kg
half-life ([3]; IV (2 mg/kg)): 2.81 h
AUC(0-inf) ([3]; PO (10 mg/kg)): 4530 ng·h/mL
Cmax ([3]; PO (10 mg/kg)): 550 ng/mL
half-life ([3]; PO (10 mg/kg)): 2.85 h

C=CCn1c(=O)c2cnc(Nc3ccc(N4CCN(CC5CCN(c6ccc7c(N8CCC(=O)NC8=O)nn(C)c7c6F)CC5)CC4)cc3)nc2n1-c1ccc2c(n1)[C@](C)(O)CC2 [Compound 200]
DC50 (HiBiT tagged Wee1): < 100 nM
Dmax (HiBiT tagged Wee1): > 75%
IC50 (NCI-H1048 cells): ≤ 25 nM
